Data reported in paper PMC12621043, “Un-LOK-ing a New Approach for Conformational Selective Targeting of STK10 (LOK)” (ACS Medicinal Chemistry Letters, 2025).

Assays:
Experiment in all cases: DSF Tm panel
Assay type in all cases: binding
Conditions in all cases: 10 μM compound
PDK4A = target: T1, PDK4A (Homo sapiens, UniProt Q16654)
T1 construct: purchased in-house DSF kinase panel (SGC-style construct names; the trailing letter is the construct ID)

RPS6KA6A = test system: RPS6KA6A
STK38LA = target: T2, STK38LA (Homo sapiens, UniProt Q9Y2H1)
T2 construct: purchased in-house DSF kinase panel (SGC-style construct names; the trailing letter is the construct ID)

TOPKA = target: T3, TOPKA (Homo sapiens, UniProt Q96KB5)
T3 construct: purchased in-house DSF kinase panel (SGC-style construct names; the trailing letter is the construct ID)
T3 sequence (Q96KB5 1-322): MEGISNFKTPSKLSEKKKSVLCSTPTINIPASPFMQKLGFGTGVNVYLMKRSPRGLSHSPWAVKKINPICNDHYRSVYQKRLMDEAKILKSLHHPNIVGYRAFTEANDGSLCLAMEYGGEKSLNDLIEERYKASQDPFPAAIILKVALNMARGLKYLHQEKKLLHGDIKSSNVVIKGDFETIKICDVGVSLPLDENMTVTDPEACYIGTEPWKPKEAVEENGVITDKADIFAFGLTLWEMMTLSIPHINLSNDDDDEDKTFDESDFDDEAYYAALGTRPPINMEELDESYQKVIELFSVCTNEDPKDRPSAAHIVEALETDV

BRPF1B = target: T4, BRPF1B (Homo sapiens, UniProt P55201)
T4 construct: purchased in-house DSF kinase panel (SGC-style construct names; the trailing letter is the construct ID)
T4 sequence (P55201 1-1214): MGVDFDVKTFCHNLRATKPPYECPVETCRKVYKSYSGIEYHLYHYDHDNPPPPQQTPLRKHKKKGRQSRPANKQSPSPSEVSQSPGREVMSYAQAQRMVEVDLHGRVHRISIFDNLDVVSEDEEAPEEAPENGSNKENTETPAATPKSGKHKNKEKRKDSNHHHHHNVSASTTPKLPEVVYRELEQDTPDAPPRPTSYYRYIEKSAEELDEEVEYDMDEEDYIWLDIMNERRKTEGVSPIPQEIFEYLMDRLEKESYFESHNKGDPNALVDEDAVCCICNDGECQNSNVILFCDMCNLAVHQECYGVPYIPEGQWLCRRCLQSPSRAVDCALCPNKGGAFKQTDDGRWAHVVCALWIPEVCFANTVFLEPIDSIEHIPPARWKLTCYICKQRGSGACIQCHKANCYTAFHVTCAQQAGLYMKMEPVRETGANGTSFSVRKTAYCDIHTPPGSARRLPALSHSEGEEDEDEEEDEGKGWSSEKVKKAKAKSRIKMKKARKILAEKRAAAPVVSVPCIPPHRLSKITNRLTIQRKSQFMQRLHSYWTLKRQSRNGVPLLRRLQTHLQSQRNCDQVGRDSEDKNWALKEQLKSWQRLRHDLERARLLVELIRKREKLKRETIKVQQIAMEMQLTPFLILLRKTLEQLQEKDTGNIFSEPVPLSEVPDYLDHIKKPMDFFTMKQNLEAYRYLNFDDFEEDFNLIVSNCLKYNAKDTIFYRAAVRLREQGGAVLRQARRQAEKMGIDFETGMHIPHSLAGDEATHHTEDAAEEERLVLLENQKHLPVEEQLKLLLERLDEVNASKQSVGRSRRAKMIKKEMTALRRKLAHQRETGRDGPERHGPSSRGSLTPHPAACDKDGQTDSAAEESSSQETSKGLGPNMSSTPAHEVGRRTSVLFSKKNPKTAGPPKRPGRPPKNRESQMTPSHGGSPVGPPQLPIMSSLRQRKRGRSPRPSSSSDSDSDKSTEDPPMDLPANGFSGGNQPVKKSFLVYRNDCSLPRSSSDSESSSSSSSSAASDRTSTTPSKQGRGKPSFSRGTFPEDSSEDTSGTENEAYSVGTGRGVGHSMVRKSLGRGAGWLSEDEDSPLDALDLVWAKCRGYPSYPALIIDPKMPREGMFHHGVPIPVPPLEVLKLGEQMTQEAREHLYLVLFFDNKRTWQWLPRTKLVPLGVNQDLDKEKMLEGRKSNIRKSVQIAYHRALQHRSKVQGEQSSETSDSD

MAPKAPK2A = target: T5, MAPKAPK2A (Homo sapiens, UniProt P49137)
T5 construct: purchased in-house DSF kinase panel (SGC-style construct names; the trailing letter is the construct ID)

NEK2A = target: T6, NEK2A (Homo sapiens, UniProt P51955)
T6 construct: purchased in-house DSF kinase panel (SGC-style construct names; the trailing letter is the construct ID)
T6 sequence (P51955 1-271): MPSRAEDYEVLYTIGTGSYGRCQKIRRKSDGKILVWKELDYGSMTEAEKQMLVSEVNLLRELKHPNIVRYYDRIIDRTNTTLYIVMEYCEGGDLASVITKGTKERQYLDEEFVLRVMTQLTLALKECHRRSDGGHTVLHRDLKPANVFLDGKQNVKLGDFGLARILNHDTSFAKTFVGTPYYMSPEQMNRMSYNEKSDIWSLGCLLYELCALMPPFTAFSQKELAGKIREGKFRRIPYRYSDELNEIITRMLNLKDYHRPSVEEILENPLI

TLK1A = target: T7, TLK1A (Homo sapiens, UniProt Q9UKI8)
T7 construct: purchased in-house DSF kinase panel (SGC-style construct names; the trailing letter is the construct ID)
T7 sequence (Q9UKI8 456-734): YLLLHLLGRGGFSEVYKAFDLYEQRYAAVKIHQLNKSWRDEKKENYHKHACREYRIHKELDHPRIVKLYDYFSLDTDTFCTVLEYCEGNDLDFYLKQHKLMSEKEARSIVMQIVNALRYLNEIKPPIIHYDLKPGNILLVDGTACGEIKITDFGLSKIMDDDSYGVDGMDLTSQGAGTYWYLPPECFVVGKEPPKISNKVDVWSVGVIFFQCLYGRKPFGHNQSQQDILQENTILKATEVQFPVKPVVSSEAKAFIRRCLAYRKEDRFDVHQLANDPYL

T2 sequence (Q9Y2H1 90-453): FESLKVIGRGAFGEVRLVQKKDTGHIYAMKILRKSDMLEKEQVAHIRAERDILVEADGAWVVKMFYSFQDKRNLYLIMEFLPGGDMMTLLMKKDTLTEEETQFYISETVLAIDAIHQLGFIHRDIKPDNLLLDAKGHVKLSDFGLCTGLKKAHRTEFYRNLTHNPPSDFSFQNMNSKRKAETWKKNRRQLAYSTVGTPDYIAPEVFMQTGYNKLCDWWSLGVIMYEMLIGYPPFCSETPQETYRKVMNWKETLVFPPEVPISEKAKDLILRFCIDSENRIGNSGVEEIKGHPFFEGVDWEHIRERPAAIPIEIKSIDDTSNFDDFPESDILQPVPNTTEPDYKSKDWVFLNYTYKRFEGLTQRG
T1 sequence (Q16654 whole entry): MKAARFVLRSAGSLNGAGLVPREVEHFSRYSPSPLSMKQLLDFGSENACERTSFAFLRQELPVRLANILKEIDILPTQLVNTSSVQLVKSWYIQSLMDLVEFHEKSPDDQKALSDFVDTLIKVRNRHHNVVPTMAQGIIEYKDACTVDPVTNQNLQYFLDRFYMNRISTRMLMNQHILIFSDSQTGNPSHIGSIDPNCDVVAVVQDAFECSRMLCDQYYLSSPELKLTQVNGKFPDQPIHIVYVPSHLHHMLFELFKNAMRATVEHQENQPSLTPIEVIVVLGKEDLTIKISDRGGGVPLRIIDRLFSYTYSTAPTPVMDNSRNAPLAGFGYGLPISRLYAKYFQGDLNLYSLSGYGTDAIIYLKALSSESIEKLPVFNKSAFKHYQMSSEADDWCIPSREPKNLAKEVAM
T5 sequence (P49137 64-325): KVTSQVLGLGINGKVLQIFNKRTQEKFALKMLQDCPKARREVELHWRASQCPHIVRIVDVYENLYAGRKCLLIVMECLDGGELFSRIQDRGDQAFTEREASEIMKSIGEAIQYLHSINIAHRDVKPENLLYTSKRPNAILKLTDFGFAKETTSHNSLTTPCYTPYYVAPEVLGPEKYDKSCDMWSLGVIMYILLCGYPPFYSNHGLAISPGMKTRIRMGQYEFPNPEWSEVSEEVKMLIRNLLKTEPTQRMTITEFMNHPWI

SMILES	ΔTm at 10 µM (PDK4A)	ΔTm at 10 µM (STK38LA)	ΔTm at 10 µM (TOPKA)	ΔTm at 10 µM (BRPF1B)	ΔTm at 10 µM (MAPKAPK2A)	ΔTm at 10 µM (NEK2A)	ΔTm at 10 µM (TLK1A)	ΔTm RPS6KA6A (RPS6KA6A)
O=C(NCc1cccc(Cl)c1)Nc1ccc2cc1OCCOCCNc1ccn3ncc-2c3n1 [compound 18]	1 °C	1.1 °C	0.5 °C					-0,3 °C
Cc1cc(Br)ccc1CNC(=O)Nc1ccc2cc1OCCOCCNc1ccn3ncc-2c3n1 [compound 24]				1.6 °C	0.1 °C	-1.3 °C	1 °C	
O=C(NCc1ccc(C(F)(F)F)cc1)Nc1ccc2cc1OCCOCCNc1ccn3ncc-2c3n1 [compound 28]				2.2 °C	0.4 °C	0.4 °C	1.6 °C	
O=C(NCc1ccc(Cl)cc1Cl)Nc1ccc2cc1OCCOCCNc1ccn3ncc-2c3n1 [compound 20]	1.1 °C	0.7 °C	1.2 °C					0,5 °C
CN1CCN(C(=O)Nc2ccc3cc2OCCOCCNc2ccn4ncc-3c4n2)CC1 [compound 35]	0.5 °C	0.4 °C	-0.4 °C					-0,3 °C
Cc1cc(Cl)ccc1CNC(=O)Nc1ccc2cc1OCCOCCNc1ccn3ncc-2c3n1 [compound 23]	0.6 °C	1.7 °C	1.5 °C					-0,3 °C
C[C@H](NC(=O)Nc1ccc2cc1OCCOCCNc1ccn3ncc-2c3n1)c1ccccc1 [compound 34]				0.5 °C	0.1 °C	-1.3 °C	0.4 °C	
COc1ccc(CNC(=O)Nc2ccc3cc2OCCOCCNc2ccn4ncc-3c4n2)cc1 [compound 31]				1 °C	0.2 °C	-1.3 °C	1.1 °C	
O=C(NCc1ccc(Cl)cc1)Nc1ccc2cc1OCCOCCNc1ccn3ncc-2c3n1 [compound 19]	0.8 °C	0.6 °C	0.2 °C					-0,2 °C
O=C(NCc1ccc(Cl)cc1F)Nc1ccc2cc1OCCOCCNc1ccn3ncc-2c3n1 [compound 21]	1.1 °C	1.2 °C	0.6 °C					-0,7 °C

The next lines start with results.

ΔTm at 10 µM (PDK4A)	ΔTm at 10 µM (STK38LA)	ΔTm at 10 µM (TOPKA)	ΔTm at 10 µM (BRPF1B)	ΔTm at 10 µM (MAPKAPK2A)	ΔTm at 10 µM (NEK2A)	ΔTm at 10 µM (TLK1A)	SMILES	ΔTm RPS6KA6A (RPS6KA6A)
0.8 °C	0.7 °C	0.4 °C					O=C(NCc1ccccc1Cl)Nc1ccc2cc1OCCOCCNc1ccn3ncc-2c3n1 [compound 17]	-0,3 °C
			-0.1 °C	0.2 °C	-0.3 °C	0.4 °C	COc1ccccc1CNC(=O)Nc1ccc2cc1OCCOCCNc1ccn3ncc-2c3n1 [compound 29]	
			1 °C	0.1 °C	-1.2 °C	0.9 °C	Cc1ccc(F)cc1CNC(=O)Nc1ccc2cc1OCCOCCNc1ccn3ncc-2c3n1 [compound 26]	
			1.9 °C	0.1 °C	-0.4 °C	1.3 °C	O=C(NCc1ccccc1C(F)(F)F)Nc1ccc2cc1OCCOCCNc1ccn3ncc-2c3n1 [compound 27]	
			1.5 °C	0.2 °C	-1.3 °C	1.2 °C	COc1ccc(CNC(=O)Nc2ccc3cc2OCCOCCNc2ccn4ncc-3c4n2)cc1F [compound 32]	
			1.2 °C	0.1 °C	-1.3 °C	0.9 °C	COc1cc(CNC(=O)Nc2ccc3cc2OCCOCCNc2ccn4ncc-3c4n2)ccc1F [compound 33]	
			0.2 °C	0.2 °C	-0.5 °C	0.7 °C	COc1cccc(CNC(=O)Nc2ccc3cc2OCCOCCNc2ccn4ncc-3c4n2)c1 [compound 30]	
-0.7 °C	0.8 °C	0.4 °C					O=C(NCc1ccccc1)Nc1ccc2cc1OCCOCCNc1ccn3ncc-2c3n1 [compound 16]	-1,2 °C
